{
  "source": "patent US20240263153A1",
  "about": "“INTEGRASE COMPOSITIONS AND METHODS” (Flagship Pioneering Innovations Vi, LLC, priority 2021, published 2024)",
  "data": [
    {"test_system": "mouse liver", "experiment": "LNP-mediated delivery of RNA to the mouse liver (luciferase activity of liver homogenate)", "format": "in vivo", "conditions": "C57BL6 male mice, i.v. 1 mg/kg, Firefly luciferase mRNA-LNPs, liver at 6, 24, 48 hours", "procedure": "To measure the effectiveness of LNP-mediated delivery of firefly luciferase containing particles to the liver, LNPs were formulated and characterized as described herein and tested in vitro prior to administration to mice. C57BL6 male mice (Charles River Labs) at approximately 8 weeks of age were dosed with LNPs via intravenous (i.v.) route at 1 mg/kg. Vehicle control animals were dosed i.v. with 300 μL phosphate buffered saline. Mice were injected via intraperitoneal route with dexamethasone at 5 mg/kg 30 minutes prior to injection of LNPs. Tissues were collected at necropsy at or 6, 24, 48 hours after LNP administration with a group size of 5 mice per time point. Liver and other tissue samples were collected, snap-frozen in liquid nitrogen, and stored at −80° C. until analysis.\nFrozen liver samples were pulverized on dry ice and transferred to homogenization tubes containing lysing matrix D beads (MP Biomedical). Ice-cold 1× luciferase cell culture lysis reagent (CCLR) (Promega) was added to each tube and the samples were homogenized in a Fast Prep-24 5G Homogenizer (MP Biomedical) at 6 m/s for 40 seconds. The samples were transferred to a clean microcentrifuge tube and clarified by centrifugation. Prior to luciferase activity assay, the protein concentration of liver homogenates was determined for each sample using the Pierce™ BCA Protein Assay Kit (ThermoFisher Scientific) according to the manufacturer's instructions. Luciferase activity was measured with […] (total protein) of liver homogenate using the luciferase assay reagent (Promega) according to manufacturer's instructions using an i3X SpectraMax plate reader (Molecular Devices). […] Reporter activity by the various formulations followed the ranking LIPIDV005>LIPIDV004>LIPIDV003. RNA expression was transient and enzyme levels returned near vehicle background by 48 hours. Post-administration. This assay validated the use of these ionizable lipids and their respective formulations for RNA systems for delivery to the liver.", "values": [
      {"smiles": "CCCCCCCC(=O)N(CCCN(C)C)C(CCCCCCCCC(=O)OC(CCCCCC)CCCCCC)CCCCCCCCC(=O)OC(CCCCCC)CCCCCC", "note": "[LIPIDV005]", "luciferase reporter activity in liver samples": "LIPIDV005>LIPIDV004>LIPIDV003"},
      {"smiles": "CCCCC/C=C\\C/C=C\\CCCCCCCC(=O)OCC(COC(=O)CCC(OCCCCCCCC)OCCCCCCCC)COC(=O)OCCCN(CC)CC", "note": "(stereo not drawn) [LIPIDV003, (9Z,12Z)-3-((4,4-bis(octyloxy)butanoyl)oxy)-2-((((3-(diethylamino)propoxy)carbonyl)oxy)methyl)propyl octadeca-9,12-dienoate]", "luciferase reporter activity in liver samples": "LIPIDV005>LIPIDV004>LIPIDV003"},
      {"smiles": "CCCCCCCCCOC(=O)CCCCCCCN(CCO)CCCCCCCC(=O)OC(CCCCCCCC)CCCCCCCC", "note": "[LIPIDV004, Heptadecan-9-yl 8-((2-hydroxyethyl)(8-(nonyloxy)-8-oxooctyl)amino)octanoate]", "luciferase reporter activity in liver samples": "LIPIDV005>LIPIDV004>LIPIDV003"}
    ]}
  ]
}
